Tests used:
[1] = system: eCD8α cDCs; test: In vitro stimulation of FL expanded ex-vivo isolated splenic eCD8α cDCs, IFN-λ; format: cell-based, mouse; details: 5×10^5/ml, IL-3+GM-CSF+IL-4+IFN-γ, 100 μg/ml, 18 h
Procedure: FIG. 13 depicts that in vivo FL expanded CD8α+cDCs and eCD8α cDCs selectively produce IFN-λ to poly AU in vitro. Highly purified FL expanded ex-vivo isolated splenic 5×10^5/ml were stimulated in the presence of IL-3+GM-CSF+IL-4+IFN-γ with either poly IC (100 μg/ml) or poly AU (100 μg/ml). After 18 h supernatants were analyzed for IFN-λ.
To see if the IFN-λ production to poly AU seen in vivo would correspond with the same cells as in response to poly IC we enhanced the amount of DC in mice with FL treatment and sorted CD8α+ cDCs, eCD8α cDCs and CD11b+/CD172a+cDCs. Those cells were stimulated with poly IC or poly AU.

[2] = system: CD8-cDCs; test: In vitro stimulation of sorted splenic CD8- cDCs, IFN-λ ELISA; format: cell-based, mouse; details: 5×10^5/ml, IL-3 and GM-CSF, 18 h
From the text: (§1) DC subsets were isolated from pooled mouse spleens as described (Vremec et al., 2007). Briefly, spleens were chopped, digested with collagenase (Worthington Biochemical) and DNase (Roche) at room temperature, and treated with EDTA. Low-density cells were enriched by density centrifugation; non-DC lineage cells were coated with mAbs (anti-CD3, KT3-1.1; anti-Thy-1, T24/31.7; anti Gr-1, 1A8; anti-CD19, ID3; anti-erythrocytes, TER119 and anti-NK cells, DX5) and depleted using anti-rat Ig magnetic beads (Qiagen). Dead cells were excluded by propidium iodide staining. cDC populations were sorted based on the expression of CD11c, CD45RA, CD4, CD8a and CD172a and pDCs were purified based on CD11c, CD45RA, and CD172a (all BD Biosciences) expression. Cell sorting was performed on a FACS Aria instrument (BD Biosciences).
(§2) Cells were stimulated in vitro with single TLR agonists or combinations thereof containing 10 μg/ml Pam3Cys (InvivoGen), 100 μg/ml poly IC (Axxora), 10 μg/ml LPS (E. coli; Sigma-Aldrich or Axxora), 10 μg/ml R848 (Axxora), 1 μM CpG-1668 or CpG-2216 (TIB-Molbiol), 1 μg/ml profilin of toxoplasma (Axxora). […] IFN-λ in supernatants was analyzed by ELISA and IL-12p70 was determined by FlowCytomix bead assay (Bender Medsystems) according to manufacturer's protocol.

[3] = system: FLDC-derived eCD8+ cDCs; test: In vitro stimulation of sorted FLDC-derived eCD8+ cDCs, IFN-λ ELISA; format: cell-based, mouse
Procedure: FL bone marrow culture derived dendritic cells (FLDC) were prepared as described (Hochrein et al., 2004). pDCs and eCD8+ and eCD8^− cDC subsets were sorted based on the expression of CD11c, CD45R, CD11b, CD24, and CD172a or CD103 (all BD Biosciences).
Cells were stimulated in vitro with single TLR agonists or combinations thereof containing 10 μg/ml Pam3Cys (InvivoGen), 100 μg/ml poly IC (Axxora), 10 μg/ml LPS (E. coli; Sigma-Aldrich or Axxora), 10 μg/ml R848 (Axxora), 1 μM CpG-1668 or CpG-2216 (TIB-Molbiol), 1 μg/ml profilin of toxoplasma (Axxora). The recombinant cytokines mouse-IL-3, mouse-IL-4, rat-IFN-γ (PeproTech) and mouse-GM-CSF (Tebu-Bio) (10 ng/ml each) were added as indicated. The addition of IL-3 and GM-CSF was based on previous observations that GM-CSF promoted the production of IL-12p70 and that the combination of IL-3 and GM-CSF increased virus induced IFN-λ production in pDCs and cDCs (Hochrein et al., 2000; Hochrein et al., 2004). As source of a parapoxvirus Zylexis, which is used for veterinary purposes was purchased from a pharmacy. HSV-1, in replication deficient form known as disc HSV-1 (HSV-1d) was used as described (Hochrein et al., 2004). IFN-λ in supernatants was analyzed by ELISA and IL-12p70 was determined by FlowCytomix bead assay (Bender Medsystems) according to manufacturer's protocol.

[4] = system: splenocytes; test: Spleen cell fractions separated after in vivo injection, cultured 18 h, IFN-λ in supernatant; parameters: species or system mouse; details: spleens 1.5-2 h after i.v. injection, magnetic bead separation, 18 h culture
Procedure: 1.5-2 h after i.v. injection of poly IC spleens were harvested and processed. Cell free supernatants were analyzed for IFN-λ after in vitro culture for 18 h. (A) 5×10^6 cells/ml total spleen cells or cells separated by density centrifugation into light density cells or heavy density cells. (B) total spleen cells 25×10^6 cells/ml of WT or CD11c-DTR-tg mice treated 2 days before with diphtheria toxin (DT). (C) Total spleen cells before separation or after magnetic bead separation into the denoted populations. The initial cell number of splenocytes added onto the column was 20×10^6. Without further counting each fraction was distributed into 2 wells with 200 μl medium/well. Bars represent the mean±SD of 2 independent experiments (A+C) or 1 experiment (B) using 2 mice per experiment.
Spleen cells 1.5 h after in vivo injection with DISC HSV-1 were separated with anti-CD45R and magnetic beads into positive and negative fractions. The CD45R negative fraction was further separated into cells positive or negative for CD8α. Separated cells were cultured in vitro for the next 18 h and cell-free supernatants were analyzed for IFN-λ.^˜ Bars represent the mean±SD of 2 independent experiments using one mouse per experiment.

[5] = system: splenic pDCs; test: In vitro stimulation of sorted splenic pDCs, IFN-λ ELISA; format: cell-based, mouse; details: 5×10^5/ml, IL-3 and GM-CSF, 18 h
From the text: as §1, §2

Question: With “Polyinosinic:polycytidylic acid [poly IC]” as the substance, how does the IFN-λ production [1] read?
Answer: Its IFN-λ production is “able to produce IFN-λ”.

Question: What about the IFN-λ production [2] of the same substance?
Answer: The IFN-λ production was “largely unable to participate in IFN-λ production”.

Question: What about the IFN-λ production ([3]; WT eCD8+ cDCs, 18 h) of the same substance?
Answer: Its IFN-λ production is “produced IFN-λ”.

Question: And the “IFN-λ production, dependence on Cardif, MyD88, TLR3” value ([3]; eCD8+ cDCs generated from Cardif-, MyD88- or TLR3-KO mice)?
Answer: The value was “involvement of TLR3 but not Cardif or MyD88”.

Question: What about the “splenocyte fraction with which IFN-λ production separates” value [4] of the same substance?
Answer: Its value is “separates with CD45R−/CD11c+/CD8α+ splenocytes”.

Question: What about the IFN-λ production [5] of the same substance?
Answer: Its IFN-λ production is “largely unable to participate in IFN-λ production”.
